From PubChem BioAssay (NCI)
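Interpolation was linear, between the two tested concentrations surrounding the appropriate level; five concentrations were tested over 48 hours in 96-well plates. At the GI50, growth is halved. The concentration for full growth arrest is given as TGI.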

What was measured:
Assay in all cases: inhibition of tumour cell growth, NCI panel, 48 h
SNB-78 CNS = test system: SNB-78 CNS
UACC-62 melanoma = test system: UACC-62 melanoma
DMS 114 small cell lung = test system: DMS 114 small cell lung
UO-31 renal = test system: UO-31 renal
OVCAR-8 ovarian = test system: OVCAR-8 ovarian
DLD-1 colon = test system: DLD-1 colon
KM20L2 colon = test system: KM20L2 colon
MDA-MB-435 = test system: MDA-MB-435
MDA-MB-231 breast = test system: MDA-MB-231 breast

SMILES | TGI (SNB-78 CNS) | TGI (UACC-62 melanoma) | TGI (DMS 114 small cell lung) | TGI (UO-31 renal) | TGI (OVCAR-8 ovarian) | TGI (DLD-1 colon) | TGI (KM20L2 colon) | TGI (MDA-MB-435) | TGI (MDA-MB-231 breast) | GI50 (SNB-78 CNS) | GI50 (UACC-62 melanoma) | GI50 (DMS 114 small cell lung) | GI50 (UO-31 renal) | GI50 (DLD-1 colon)
C=CNC(=S)n1nc(-c2ccccc2NC(=O)C(F)(F)F)c(=O)n(C(=S)NC=C)c1=S | > 100 µM | > 100 µM | 28.9 µM | 73.6 µM | > 100 µM | 49.3 µM | – | – | – | – | – | – | – | –
COC(=O)C1=Cc2cn(S(=O)(=O)c3ccc(C)cc3)c3cccc(c23)C(C=C(C)C)N1C(C)=O (stereo not given) | > 100 µM | > 100 µM | > 100 µM | > 100 µM | > 100 µM | > 100 µM | > 100 µM | – | – | – | – | – | – | –
CSCC(COC(C)=O)(CSC)c1ccncc1 | > 100 µM | > 100 µM | > 100 µM | > 100 µM | > 100 µM | – | > 100 µM | – | – | – | – | – | – | –
Cn1c2c(c3ccccc31)CCN(CCCN1CCN(c3ccccc3)CC1)C2=O | – | 37.4 µM | 38.1 µM | 30.3 µM | 59.6 µM | 46.6 µM | 25.4 µM | – | – | – | – | – | – | –
CCOC(=O)CP(=S)(S)c1ccccc1 (stereo not given) | > 100 µM | > 100 µM | > 100 µM | > 100 µM | > 100 µM | > 100 µM | > 100 µM | – | – | – | – | – | – | –
C[C@H]1CCC2C(CN3CCCCC3)C(=O)OC2[C@]2(C)C(=O)CC(N3CCCCC3)C12O (stereo not given in full) | > 100 µM | 5.92 µM | 13.1 µM | 27.9 µM | – | 16 µM | – | – | – | – | – | – | – | –
Cc1cc(C)c(C(=O)/C(=C/c2ccccc2)c2ccccc2)c(C)c1 | – | > 100 µM | > 100 µM | > 100 µM | > 100 µM | > 100 µM | > 100 µM | – | – | – | – | – | – | –
Cc1cc(C)c(C2=NO[C@@H]3C(=O)N(c4ccc(Cc5ccc(N6C(=O)[C@H]7C(c8c(C)cc(C)cc8C)=NO[C@H]7C6=O)cc5)cc4)C(=O)[C@H]23)c(C)c1 | > 100 µM | > 100 µM | > 100 µM | > 100 µM | > 100 µM | > 100 µM | > 100 µM | – | – | – | – | – | – | –
CCCCC1N=CNc2c1ccc1c2[nH]c2ccccc21 (stereo not given) | 38.6 µM | 8.94 µM | 4.06 µM | 21.9 µM | – | 6.3 µM | – | 3.35 µM | 3.3 µM | – | – | – | – | –
O=Cc1cn(S(=O)(=O)c2ccccc2)c2ccccc12 | > 100 µM | 86 µM | 62.9 µM | 68 µM | > 100 µM | > 100 µM | > 100 µM | – | – | – | – | – | – | –
C1C[S][Ge]2([S]CCS1)[S]CCSCC[S]2 | > 100 µM | > 100 µM | > 100 µM | > 100 µM | – | > 100 µM | – | – | – | > 100 µM | > 100 µM | > 100 µM | > 100 µM | > 100 µM
Cc1nc(-n2nc(-c3ccccc3)cc2-c2ccccc2)sc1C(/C=C/c1ccc([N+](=O)[O-])cc1)=N/NC(N)=S | 56.7 µM | > 100 µM | 73.5 µM | > 100 µM | > 100 µM | > 100 µM | > 100 µM | – | – | – | – | – | – | –
O=c1[nH]c(-c2ccc([N+](=O)[O-])cc2)nc2ccc(Cl)cc12 | > 100 µM | > 100 µM | – | > 100 µM | > 100 µM | – | > 100 µM | – | – | – | – | – | – | –
C/C(CC(=O)Nc1ccc([N+](=O)[O-])cc1)=N\Nc1ccc([N+](=O)[O-])cc1[N+](=O)[O-] | > 100 µM | > 100 µM | > 100 µM | > 100 µM | > 100 µM | > 100 µM | > 100 µM | – | – | – | – | – | – | –
CN(CC1NCCCC1O)C12CC3CC(CC(C3)C1)C2 (stereo not given) | – | > 100 µM | > 100 µM | > 100 µM | > 100 µM | > 100 µM | > 100 µM | – | – | – | – | – | – | –
O=C1CCCCCCCCCCOC(=O)CCCCCCCCCCO1 | > 100 µM | > 100 µM | > 100 µM | > 100 µM | > 100 µM | > 100 µM | – | – | – | – | – | – | – | –
C/C(CC(=O)Nc1cccc(C)c1C)=N\NC(N)=S | > 100 µM | > 100 µM | > 100 µM | > 100 µM | > 100 µM | > 100 µM | > 100 µM | – | – | – | – | – | – | –
COc1cc(=O)oc(/C=C/CO)c1C | – | > 100 µM | > 100 µM | > 100 µM | > 100 µM | > 100 µM | > 100 µM | – | – | – | – | – | – | –
C=CCn1c(=O)c(C(=O)NC(=O)OCC)cn(C2CCCCC2)c1=O | > 100 µM | > 100 µM | > 100 µM | > 100 µM | > 100 µM | > 100 µM | > 100 µM | – | – | – | – | – | – | –
